Measured values: US20260240845A1, “METHODS FOR TREATING OR PREVENTING CORONAVIRUS INFECTION SKELETAL SEQUELAE” (priority 2023, published 2026)
“Also recorded” adds a separate entry of the source.

Key:
[1] = tested on: C28/12; assay: Rescue effect of macitentan on SP RBD-induced oxidative stress and mitochondrial dynamics in chondrocytes (CellROX, MitoTracker); format: cell-based, human; settings: C28/12 pre-treated with 10 μM Macitentan for 30 minutes, then SP RBD 10 μg/ml for 1 h
Experimental: Chondrocyte cell lines C28/12 (human), ATDC5 (mouse) and human umbilical vein endothelial cells (HUVEC) were received as gifts from Prof. Danny Chan from the University of Hong Kong, Prof. Limin Rong from Sun Yat-Sen University and Prof.
Mo Yang from the Hong Kong Polytechnic University respectively. Both chondrocyte cell lines were maintained in DMEM/F12 culture medium supplemented with 5% heat-inactivated FBS, 50 U ml^−1 penicillin and 50 μg ml-^1 streptomycin. HUVEC were cultured in endothelial cell medium with 1% endothelial cell growth supplement and 1% antibiotic solution (ScienCell).
To investigate the rescue effect of Macitentan on RBD-induced oxidative stress accumulation and change in mitochondrial dynamics, cells seeded on coverslips were pre-treated with 10 μM Macitentan for 30 minutes before adding RBD for an hour.
To evaluate cellular oxidative stress, CellROX® Deep Red Reagent solution (Invitrogen) was used according to the manufacturer's instructions. Positive signal was visualized by excitation/emission at 640/665 nm. For visualising mitochondrial morphology, we stained the cells using Mito Tracker® Red CMXRos (Invitrogen) with excitation/emission at 579/599 nm. Cells were then counterstained and mounted by ProLong® Gold antifade reagent with 4′, 6-diamidino-2-phenylindole (DAPI). All the images were captured using Leica TCS SPE Confocal microscope.

[2] = tested on: mice injected with SP RBD; design: species or system Balb/c mice; settings: mouse, in vivo
[3] = tested on: SARS-COV-2-infected hamsters; design: species or system golden Syrian hamsters (Mesocricetus auratus); settings: hamster, in vivo
[4] = tested on: SARS-COV-2-infected hamsters; design: species or system golden Syrian hamsters (Mesocricetus auratus); settings: hamster, in vivo; remark: listed apart in the source

SMILES: CCCNS(=O)(=O)Nc1ncnc(OCCOc2ncc(Br)cn2)c1-c1ccc(Br)cc1 [macitentan]
- SP RBD-induced cellular oxidative stress (CellROX staining) [1]: effectively lowered SARS-COV-2 spike protein-induced increase in oxidative stress
- mitochondrial dynamics / morphology (MitoTracker staining) [1]: showed restoration of rod-like structures
- SP RBD-induced subchondral bone loss (micro-CT, proximal epiphysis of tibia) [2]: rescue effect of macitentan on SP RBD-induced bone loss
- accumulation of senescent chondrocytes (p16INK4a, HMGB1) in articular cartilage [2]: preventing accumulation of senescent chondrocytes
- proteoglycan in articular cartilage (Safranin O/fast green) [2]: performed better in terms of preserving proteoglycan
- paw withdrawal threshold / nociceptive tolerance (von Frey filament test) ([2]; ip, 0.3 mg/kg): able to attain the same nociceptive tolerance as high dose after 12 days
- paw withdrawal threshold (von Frey filament test) ([2]; ip, 3 mg/kg): increase in paw withdrawal threshold after 5 days of treatment; also recorded: faster analgesic effect at the higher dose
- 4HNE expression level in bone marrow cavity of subchondral bone (oxidative stress) [3]: lowered vWF and 4HNE expression level
- BV/TV (micro-CT) [3]: no significant difference
- amount of viral spike protein at local joint tissue (subchondral bone marrow cavity) [3]: tended to lower the amount of viral spike protein
- area of the cysts at the osteochondral junction [3]: effectively reducing the area of the cysts
- articular surface roughness [3]: No statistical significance
- collagen loss (Masson's trichrome staining) [3]: prevented virus-induced collagen loss
- fibrin exudate at the osteochondral junction [3]: decreasing the fibrin exudate
- number of SP7+ osteoblasts progenitors [3]: without affecting the number of SP7^+ osteoblasts progenitors
- number of TRAP+ osteoclasts in subchondral bone [3]: significantly lower number of TRAP^+ osteoclasts
- number of chondrocytes in articular cartilage [3]: More chondrocytes were observed
- number of cytoplasmic HMGB1 cells in articular cartilage [3]: decrease in the number of nuclear p16^INK4a and cytoplasmic HMGB1 cells
- number of nuclear p16INK4a cells in articular cartilage [3]: decrease in the number of nuclear p16^INK4a
- subchondral BMD (micro-CT) [3]: could restore subchondral BMD
- vWF expression level in bone marrow cavity of subchondral bone [3]: lowered vWF and 4HNE expression level
- BMD in tibial epiphysis (micro-CT) [4]: improvement in subchondral bone mass and microstructure; also recorded: significant increase in BMD and BV/TV
- BV/TV in tibial epiphysis (micro-CT) [4]: improvement in subchondral bone mass and microstructure; also recorded: significant increase in BMD and BV/TV
- amount of viral spike protein retained (subchondral bone marrow cavity) [4]: could reduce the amount of viral spike protein retained
- articular cartilage structure [4]: did not lead to further improvement in articular cartilage structurally
- chondrocyte dropout [4]: slight yet not significant improvement
- cyst formation [4]: slight yet not significant improvement
- expression level of vWF in bone marrow [4]: could effectively lower the expression level of vWF
- number of SP7+ osteoblast progenitors [4]: increased the number of SP7^+ osteoblast progenitors
- number of TRAP+ osteoclasts [4]: without affecting the number of TRAP^+ osteoclasts
- number of senescent chondrocytes in articular cartilage (p16INK4a and HMGB1 staining) [4]: effectively lower the number of senescent chondrocytes
- oxidative stress near vessels (4HNE staining) [4]: reduction of oxidative stress near vessels
- trabecular number in tibial epiphysis (micro-CT) [4]: improvement in subchondral bone mass and microstructure
- trabecular separation in tibial epiphysis (micro-CT) [4]: improvement in subchondral bone mass and microstructure
- trabecular thickness in tibial epiphysis (micro-CT) [4]: improvement in subchondral bone mass and microstructure
